Experimental findings from patent US8722849B2, “Polypeptides” (Novo Nordisk A/S, priority 2011, dated 2014) are described below.

Series [1] can be described thus: Assay (IV) determination of solubility. It counts as physicochemical. The method in brief:
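Solubility is measured across pH 3.0–8.0 by mixing a ~500 nmol/ml aqueous polypeptide stock 1:1 with 100 mM glycylglycine or bistrispropane buffers. Samples stand 18 hours at room temperature, then are centrifuged and the soluble concentration is determined by HPLC.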

In series [2] the target is T1, human calcitonin receptor (Homo sapiens, UniProt P30988).
T1 construct: expressed in transfected cells; host or cells: BHK570
T1 sequence (P30988 25-474): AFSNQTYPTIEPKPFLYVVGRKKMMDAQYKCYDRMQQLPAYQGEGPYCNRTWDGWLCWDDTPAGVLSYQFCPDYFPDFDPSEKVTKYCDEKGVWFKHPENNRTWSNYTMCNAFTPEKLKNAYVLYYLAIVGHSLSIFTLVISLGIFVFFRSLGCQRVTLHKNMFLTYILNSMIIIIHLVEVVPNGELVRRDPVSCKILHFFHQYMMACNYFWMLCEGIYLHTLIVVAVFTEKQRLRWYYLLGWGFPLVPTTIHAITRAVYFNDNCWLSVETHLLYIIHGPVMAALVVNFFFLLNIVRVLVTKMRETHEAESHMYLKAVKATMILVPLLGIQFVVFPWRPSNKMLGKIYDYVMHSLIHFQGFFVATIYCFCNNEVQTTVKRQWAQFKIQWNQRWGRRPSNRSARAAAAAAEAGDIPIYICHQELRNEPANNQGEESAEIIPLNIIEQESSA
Nature of the series: Assay (II)a functional CRE-luciferase assay, human calcitonin receptor. The series is classed as cell-based. As to conditions: Table 7; human calcitonin (CTa) receptor.

In series [3] the target is T2, rat amylin 3(a) receptor (rat calcitonin(a) receptor + rat RAMP3) (Rattus norvegicus, UniProt P32214+Q9JJ73).
T2 construct: expressed in transfected cells; host or cells: BHK tk'ts 13
T2 sequence (P32214 25-479 isoform P32214-2 limits assumed): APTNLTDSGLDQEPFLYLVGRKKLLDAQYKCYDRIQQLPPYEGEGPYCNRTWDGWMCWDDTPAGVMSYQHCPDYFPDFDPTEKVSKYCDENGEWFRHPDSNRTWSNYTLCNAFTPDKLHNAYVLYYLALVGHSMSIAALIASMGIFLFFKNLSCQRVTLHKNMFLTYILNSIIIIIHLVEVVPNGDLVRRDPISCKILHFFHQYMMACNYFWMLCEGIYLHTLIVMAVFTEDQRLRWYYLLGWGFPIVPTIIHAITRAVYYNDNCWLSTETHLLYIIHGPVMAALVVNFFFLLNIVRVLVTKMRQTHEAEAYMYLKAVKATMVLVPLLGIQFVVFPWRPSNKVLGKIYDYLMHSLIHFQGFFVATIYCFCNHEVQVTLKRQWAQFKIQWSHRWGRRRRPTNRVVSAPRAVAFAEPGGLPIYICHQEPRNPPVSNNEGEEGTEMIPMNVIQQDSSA
T2 sequence (Q9JJ73 23-147 partner): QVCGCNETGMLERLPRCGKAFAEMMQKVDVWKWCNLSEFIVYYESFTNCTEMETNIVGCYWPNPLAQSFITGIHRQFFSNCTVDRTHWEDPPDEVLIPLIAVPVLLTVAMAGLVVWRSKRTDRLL
Put plainly: Assay (II)b functional cAMP FlashPlate assay, rat amylin receptor. It counts as cell-based. As to conditions: Table 11. Summed up: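 BHK tk'ts 13 cells transiently transfected with rat calcitonin(a) receptor, alone or with rat RAMP3 (amylin 3(a)), were stimulated 24 hours later with sample for 30 min in buffer containing IBMX. cAMP measured by competitive radioactive FlashPlate assay, scintillation read after 3 h detection incubation.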

The target in series [4] is T3, human amylin receptor (amylin 3(a) receptor: human calcitonin receptor + RAMP-3) (Homo sapiens, UniProt O60896+P30988).
T3 construct: expressed in transfected cells; host or cells: BHK570
T3 sequence (P30988 25-474): T1 sequence (P30988 25-474)
T3 sequence (O60896 24-148 partner): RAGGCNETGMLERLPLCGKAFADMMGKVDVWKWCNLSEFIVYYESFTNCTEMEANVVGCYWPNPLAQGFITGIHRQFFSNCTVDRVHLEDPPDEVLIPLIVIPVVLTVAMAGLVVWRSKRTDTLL
Nature of the series: Assay (II)a functional CRE-luciferase assay, human amylin receptor. The conditions noted are these: Table 2; BHK amylin 3(a)-receptor/CRE-luc cells. The series is classed as cell-based.

Setting [5] is: bistrispropane buffer, pH 6, pH 6.0, read-out: Solubility pH 6.0.
The mark [6] stands for this setting: bistrispropane buffer, pH 6.5, pH 6.5, read-out: Solubility pH 6.5.
Where [7] appears, read: bistrispropane buffer, pH 7, pH 7.0, read-out: Solubility pH 7.0.
[8] abbreviates: bistrispropane buffer, pH 7.5, pH 7.5, read-out: Solubility pH 7.5.
Setting [9] is: bistrispropane buffer, pH 8, pH 8.0, read-out: Solubility pH 8.0.
The mark [10] stands for this setting: glycylglycine buffer, pH 3, pH 3.0, read-out: Solubility pH 3.0.
[11] abbreviates: glycylglycine buffer, pH 4, pH 4.0, 18 hours at room temperature, Table 2, read-out: Solubility pH 4.0.
The mark [12] stands for this setting: glycylglycine buffer, pH 4, pH 4.0, read-out: Solubility pH 4.0.
[13] abbreviates: glycylglycine buffer, pH 5, pH 5.0, read-out: Solubility pH 5.0.

SMILES strings stand for the structures. Converted amounts (≈) assume the structure as drawn. Like-named read-outs stand apart in the source and are kept apart here. Starred links: 1 amine or outer side, 2 acyl side, 3 side chain; linkers in the order of their positions; H or OH if unused. Positions of bridges follow the written chain, without caps; N, C: chain ends. Residues, ends and D or L forms follow the SMILES beside them. *: point of attachment. C20 diacid = O=C(O)CCCCCCCCCCCCCCCCCCC(=O)*; C18 diacid = O=C(O)CCCCCCCCCCCCCCCCC(=O)*; γGlu = O=C(O)[C@H](CCC(=O)[*:2])N[*:1] Where only a bound is given, the exact number is not on record here.

Turning to `CC[C@H](C)[C@H](NC(=O)[C@@H]1CCCN1C(=O)CNC(=O)[C@H](Cc1ccccc1)NC(=O)[C@H](CC(N)=O)NC(=O)[C@H](CC(N)=O)NC(=O)[C@H](CO)NC(=O)[C@H](CO)NC(=O)[C@H](Cc1c[nH]cn1)NC(=O)[C@H](Cc1c[nH]cn1)NC(=O)[C@H](CC(C)C)NC(=O)[C@H](Cc1ccccc1)NC(=O)[C@H](CCC(=O)O)NC(=O)[C@H](C)NC(=O)[C@H](CC(C)C)NC(=O)[C@H](CCCNC(=N)N)NC(=O)[C@H](CCC(N)=O)NC(=O)[C@@H](NC(=O)[C@H](C)NC(=O)[C@@H]1CSSC[C@H](NC(=O)[C@H](Cc2c[nH]cn2)NC(=O)[C@H](Cc2c[nH]cn2)NC(=O)[C@H](Cc2c[nH]cn2)NC(=O)CC[C@H](NC(=O)CCCCCCCCCCCCCCCCCCC(=O)O)C(=O)O)C(=O)N[C@@H](CCCNC(=N)N)C(=O)N[C@@H]([C@@H](C)O)C(=O)N[C@@H](C)C(=O)N[C@@H]([C@@H](C)O)C(=O)N1)[C@@H](C)O)C(=O)N[C@@H](CC(C)C)C(=O)N1CCC[C@H]1C(=O)N1CCC[C@H]1C(=O)N[C@H](C(=O)N[C@@H](CC(N)=O)C(=O)N[C@H](C(=O)NCC(=O)N[C@@H](CO)C(=O)N[C@@H](CC(N)=O)C(=O)N[C@H](C(=O)N[C@@H](Cc1ccc(O)cc1)C(N)=O)[C@@H](C)O)C(C)C)[C@@H](C)O` [Example 22, N-alpha-[(S)-4-Carboxy-4-(19-carboxynonadecanoylamino)butyryl]-His-His-[His1,Arg3,Glu14,His17]-pramlintide] ({C20 diacid-γGlu}-HHHCRTATCATQRLAEFLHHSSNNFGPILPPTNVGSNTY-NH2; disulfide 4-9 (inferred)), the solubility at 18 h was more than 200 µM in series [1] (setting [5]); 57 µM (≈ 273 µg/mL) in series [1] (setting [6]); 2 µM (≈ 9.56 µg/mL) in series [1] (setting [7]); 1 µM (≈ 4.78 µg/mL) in series [1] (setting [8]); 3 µM (≈ 14.3 µg/mL) in series [1] (setting [9]); more than 200 µM in series [1] (setting [10]). In addition, the solubility at 18 h in series [1] (setting [11]), in series [1] (setting [12]) and in series [1] (setting [13]) was more than 200 µM in each case. The EC50 in series [2] turned out to be 0.157 nM; in series [3], 0.261 nM; in series [4] it was 0.0985 nM.

As for `CC[C@H](C)[C@H](NC(=O)[C@@H]1CCCN1C(=O)CNC(=O)[C@H](Cc1ccccc1)NC(=O)[C@H](CC(N)=O)NC(=O)[C@H](CC(N)=O)NC(=O)[C@H](CO)NC(=O)[C@H](CO)NC(=O)[C@H](Cc1c[nH]cn1)NC(=O)[C@H](Cc1c[nH]cn1)NC(=O)[C@H](CC(C)C)NC(=O)[C@H](Cc1ccccc1)NC(=O)[C@H](CCC(=O)O)NC(=O)[C@H](C)NC(=O)[C@H](CC(C)C)NC(=O)[C@H](CCCNC(=N)N)NC(=O)[C@H](CCC(N)=O)NC(=O)[C@@H](NC(=O)[C@H](C)NC(=O)[C@@H]1CSSC[C@H](NC(=O)[C@H](Cc2c[nH]cn2)NC(=O)CC[C@H](NC(=O)CCCCCCCCCCCCCCCCCCC(=O)O)C(=O)O)C(=O)N[C@@H](CC(N)=O)C(=O)N[C@@H]([C@@H](C)O)C(=O)N[C@@H](C)C(=O)N[C@@H]([C@@H](C)O)C(=O)N1)[C@@H](C)O)C(=O)N[C@@H](CC(C)C)C(=O)N1CCC[C@H]1C(=O)N1CCC[C@H]1C(=O)N[C@H](C(=O)N[C@@H](CC(N)=O)C(=O)N[C@H](C(=O)NCC(=O)N[C@@H](CO)C(=O)N[C@@H](Cc1c[nH]cn1)C(=O)N[C@H](C(=O)N[C@@H](Cc1ccc(O)cc1)C(N)=O)[C@@H](C)O)C(C)C)[C@@H](C)O` [Example 76, N-alpha-[(S)-4-Carboxy-4-(19-carboxynonadecanoylamino)butyryl]-[His1,Glu14,His17,His35]-pramlintide] ({C20 diacid-γGlu}-HCNTATCATQRLAEFLHHSSNNFGPILPPTNVGSHTY-NH2; disulfide 2-7 (inferred); C-terminus assumed), the solubility at 18 h in series [1] (setting [5]) is 45 µM (≈ 202 µg/mL); in series [1] (setting [6]), 1 µM (≈ 4.49 µg/mL); in series [1] (setting [7]) it was 4 µM (≈ 18 µg/mL); in series [1] (setting [8]) it was 104 µM (≈ 467 µg/mL); in series [1] (setting [9]) it was more than 200 µM; in series [1] (setting [10]), more than 200 µM. The solubility at 18 h in series [1] (setting [11]), in series [1] (setting [12]) and in series [1] (setting [13]) was more than 200 µM each time. In addition, the concentration giving a half-maximal response (EC50) in series [2] was determined as 0.0855 nM; in series [3], 0.224 nM; in series [4], 0.121 nM.

Consider `CC[C@H](C)[C@H](NC(=O)[C@@H]1CCCN1C(=O)CNC(=O)[C@H](Cc1ccccc1)NC(=O)[C@H](CC(N)=O)NC(=O)[C@H](CC(N)=O)NC(=O)[C@H](CO)NC(=O)[C@H](CO)NC(=O)[C@H](Cc1c[nH]cn1)NC(=O)[C@H](CCCNC(=N)N)NC(=O)[C@H](CC(C)C)NC(=O)[C@H](Cc1ccccc1)NC(=O)[C@H](CCC(=O)O)NC(=O)[C@H](C)NC(=O)[C@H](CC(C)C)NC(=O)[C@H](CCCNC(=N)N)NC(=O)[C@H](CCC(N)=O)NC(=O)[C@@H](NC(=O)[C@H](C)NC(=O)[C@@H]1CSSC[C@H](NC(=O)[C@H](CCCCN)NC(=O)CC[C@H](NC(=O)CCCCCCCCCCCCCCCCC(=O)O)C(=O)O)C(=O)N[C@@H](CC(N)=O)C(=O)N[C@@H]([C@@H](C)O)C(=O)N[C@@H](C)C(=O)N[C@@H]([C@@H](C)O)C(=O)N1)[C@@H](C)O)C(=O)N[C@@H](CC(C)C)C(=O)N1CCC[C@H]1C(=O)N1CCC[C@H]1C(=O)N[C@H](C(=O)N[C@@H](CC(N)=O)C(=O)N[C@H](C(=O)NCC(=O)N[C@@H](CO)C(=O)N[C@@H](Cc1c[nH]cn1)C(=O)N[C@H](C(=O)N[C@@H](Cc1ccc(O)cc1)C(N)=O)[C@@H](C)O)C(C)C)[C@@H](C)O` [Example 61, N-alpha-[(S)-4-Carboxy-4-(17-carboxyheptadecanoylamino)butyryl]-[Glu14,Arg17,His35]-pramlintide] ({C18 diacid-γGlu}-KCNTATCATQRLAEFLRHSSNNFGPILPPTNVGSHTY-NH2; disulfide 2-7 (inferred)), for which the solubility at 18 h is more than 200 µM in series [1] (setting [5]); more than 200 µM in series [1] (setting [6]); 81 µM (≈ 362 µg/mL) in series [1] (setting [7]); 50 µM (≈ 224 µg/mL) in series [1] (setting [8]); 48 µM (≈ 215 µg/mL) in series [1] (setting [9]); more than 200 µM in series [1] (setting [10]). Further, the solubility at 18 h in series [1] (setting [11]), in series [1] (setting [12]) and in series [1] (setting [13]) was more than 200 µM each time. The EC50 in series [2] came to 0.335 nM; in series [3], 0.038 nM; in series [4], 0.0675 nM.
